Data on one compound can be found in US4185010A, “Nonapeptides” (American Home Products Corporation, priority 1978, dated 1980).

Type in all cases: in vivo
The test system of assay [1] is glucagon. The assay is described as follows: Arginine-stimulated hormone release in Nembutal-anesthetized rats, glucagon by radioimmunoassay. Here is the method:
(§1) Albino male rate are administered Nembutal intraperitoneally at a dose of 50 milligrams per kilogram. Fifteen minutes later a subcutaneous injection of the test compound or physiological saline (control) is administered. Ten minutes later 0.5 milliliters of arginine (300 milligrams per milliliter, pH 7.2) is injected into the heart. Five minutes after receipt of the arginine the rats are decapitated and blood is collected into trasylol-EDTA. An appropriate aliquot is assayed for growth hormone (GH), insulin, and glucagon by radioimmunoassay.

Assay [2] concerns growth hormone (GH). The assay is described as follows: Arginine-stimulated hormone release in Nembutal-anesthetized rats, growth hormone by radioimmunoassay. The following applies: albino male rats, 1,000 μg/kg subcutaneous, blood 15 min after dose (5 min after arginine); control 454 ± 106. Here is the method:
as §1

Assay [3] concerns insulin. The assay is described as follows: Arginine-stimulated hormone release in Nembutal-anesthetized rats, insulin by radioimmunoassay. The following applies: albino male rats, 1,000 μg/kg subcutaneous, blood 15 min after dose (5 min after arginine); control 269 ± 37. How it is done: as §1

Where a SMILES comes first, the peptide text is derived from it. Bridges are numbered along the chain shown (N, C = ends). [ ]: non-standard residue; d: D form. Abu = CC[C@H](N)C(=O)O

As for `CC[C@@H]1NC(=O)[C@H](CCCCN)NC(=O)[C@@H](Cc2c[nH]c3ccccc23)NC(=O)[C@H](Cc2ccccc2)NC(=O)[C@H](Cc2ccccc2)NC(=O)[C@H](Cc2c[nH]cn2)NC(=O)[C@@H](N)CSSC[C@@H](C(=O)O)NC(=O)[C@H](Cc2ccccc2)NC1=O` [Example 2, L-Cysteinyl-L-histidyl-L-phenylalanyl-L-phenylalanyl-D-tryptophyl-L-lysyl-L-α-aminobutyryl-L-phenylalanyl-L-cysteine cyclic (1-9) disulfide] (H-CHFF[dW]K[Abu]FC-OH; disulfide 1-9), the GLUN in assay [1] (albino male rats, 1,000 μg/kg subcutaneous, blood 15 min after dose (5 min after arginine), control 60 ± 10, p<0.05) was determined as 31 ± 5 pg/mL. Moreover, in assay [1] (without materially altering blood serum growth hormone and insulin levels), the “selective inhibition of glucagon release versus growth hormone and insulin levels” value was “selectively inhibit glucagon release”. The same compound gave a GH in assay [2] of 413 ± 98 ng/mL. The INS in assay [3] came to 262 ± 39 μU/ml.
